Results as given in patent publication US20260137807A1, “COMPOSITIONS AND METHODS FOR DELIVERING A MACROMOLECULE TO A CELL” (AstraZeneca AB, priority 2022, published 2026).

Experiments:
[1] = test system: Luc705 pre-mRNA in Huh7 Luc705 cells; assay: RT-PCR of corrected luciferase mRNA; type: cell-based; conditions: with SSO, Huh7, FIG. 9
Method: (§1) The percentage of corrected luciferase mRNA was quantified using a previously validated RT-PCR protocol. (Saher et al. (2019) Pharmaceutics. 11(12):666) Total RNA was extracted from HeLa Luc705 and Huh7 Luc705 cells using TRI Reagent (Sigma-Aldrich) according to the manufacturer's instructions.
(§2) For RT-PCR reactions using ONE STEP RT-PCR kit (QIAGEN), three nanograms of isolated RNA were utilized. The total reaction volume was 20 μL and the primer sequences used were:
(§3) The program for the RT-PCR was as follows: 55° C., 35 min, then 95° C., 15 min, for the reverse transcription step, directly followed by the PCR (94° C., 30 s, then 55° C., 30 s, then 72° C., 30 s) for 30 cycles and the final extension 72° C., 10 min. The PCR products were analyzed using a 1% agarose gel in 0.5× TAE buffer and visualized by SYBR Gold (Invitrogen, Molecular products) staining.
(§4) Versadoc imaging system with a cooled CCD camera (BioRad, Hercules, CA, USA) was used for the analysis of gels. Band intensities were analyzed with the Quantity One software (BioRad, Hercules, CA, USA). The percentage of correction was calculated using this equation (Band intensity of corrected RNA*100/(Band intensity of corrected RNA+Band intensity of uncorrected RNA).

[2] = test system: Luc705 pre-mRNA in HeLa Luc705 cells; assay: RT-PCR of corrected luciferase mRNA; type: cell-based; conditions: with SSO, FIG. 9
Method: as §1, §2, §3, §4

**Q.** With `COc1nn(C2CCNCC2)cc1Nc1ncc(Cl)c(-n2ccc3c(C#N)cccc32)n1` [Compound 2] as the compound, how does the “levels of splice-switching (functional mRNA)” value [1] read?
**A.** The value was “greater levels of splice-switching than transfection with SSO using Lipofectamine 2000”.

**Q.** What about the “levels of splice-switching (functional mRNA)” value [2] of the same compound?
**A.** Its value is “greater levels of splice-switching than transfection with SSO using Lipofectamine 2000”.
